In US12649750B2, “Macrocyclic compounds, compositions, and methods of using thereof” (Sionna Therapeutics Inc., priority 2022, dated 2026):

Experiments:
[1] = molecular target: T1, NBD1 (Homo sapiens, UniProt P13569); test: Aggregation analysis using differential static light scattering (DSLS), thermal stability of NBD1 (ΔTagg); assay type: binding; details: ΔTagg versus DMSO control, NBD1 0.2 mg/ml
T1 construct: Purified recombinant NBD1 was produced using previously described methods; made in house
Outline: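 Differential static light scattering read from 25° C. to 70° C. every 0.5° C., ramp 1° C./min, on recombinant NBD1 (0.2 mg/ml; Tris/NaCl/MgCl2 buffer with 2 mM ATP, 2 mM DTT, pH 7.6, 1% glycerol) plus compound. Reported ΔTagg subtracts averaged DMSO Tagg from inflection-point Tagg; categories A ≤5, B >5-10, C >10-25° C.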

[2] = molecular target: T2, CFTR (Homo sapiens, UniProt P13569, DEL508-508); test: TECC24 AUC fold over DMSO @10 μM, CFTR-mediated transepithelial chloride transport in CF-HBE cells; assay type: cell-based; details: test agent AUC divided by DMSO vehicle AUC, primary CF-HBE cells, ΔF508 homozygous donor, 48 hours incubation
T2 construct: Primary human bronchial epithelial cells from a ΔF508 homozygous CF donor; host or cells: primary human bronchial epithelial cells (CF-HBE), ΔF508 homozygous donor
Outline: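 Value is ratio of test-agent to DMSO AUC of equivalent transepithelial Cl− current, integrated from forskolin (10 μM) stimulation to CFTR inhibitor-172 (20 μM) block, with benzamil 10 μM present. CF-HBE (ΔF508/ΔF508) cultures had 48 h compound exposure at 10 μM, 36.5° C before recording.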

T2 sequence (P13569 with tags, fused parts or gaps DEL508-508): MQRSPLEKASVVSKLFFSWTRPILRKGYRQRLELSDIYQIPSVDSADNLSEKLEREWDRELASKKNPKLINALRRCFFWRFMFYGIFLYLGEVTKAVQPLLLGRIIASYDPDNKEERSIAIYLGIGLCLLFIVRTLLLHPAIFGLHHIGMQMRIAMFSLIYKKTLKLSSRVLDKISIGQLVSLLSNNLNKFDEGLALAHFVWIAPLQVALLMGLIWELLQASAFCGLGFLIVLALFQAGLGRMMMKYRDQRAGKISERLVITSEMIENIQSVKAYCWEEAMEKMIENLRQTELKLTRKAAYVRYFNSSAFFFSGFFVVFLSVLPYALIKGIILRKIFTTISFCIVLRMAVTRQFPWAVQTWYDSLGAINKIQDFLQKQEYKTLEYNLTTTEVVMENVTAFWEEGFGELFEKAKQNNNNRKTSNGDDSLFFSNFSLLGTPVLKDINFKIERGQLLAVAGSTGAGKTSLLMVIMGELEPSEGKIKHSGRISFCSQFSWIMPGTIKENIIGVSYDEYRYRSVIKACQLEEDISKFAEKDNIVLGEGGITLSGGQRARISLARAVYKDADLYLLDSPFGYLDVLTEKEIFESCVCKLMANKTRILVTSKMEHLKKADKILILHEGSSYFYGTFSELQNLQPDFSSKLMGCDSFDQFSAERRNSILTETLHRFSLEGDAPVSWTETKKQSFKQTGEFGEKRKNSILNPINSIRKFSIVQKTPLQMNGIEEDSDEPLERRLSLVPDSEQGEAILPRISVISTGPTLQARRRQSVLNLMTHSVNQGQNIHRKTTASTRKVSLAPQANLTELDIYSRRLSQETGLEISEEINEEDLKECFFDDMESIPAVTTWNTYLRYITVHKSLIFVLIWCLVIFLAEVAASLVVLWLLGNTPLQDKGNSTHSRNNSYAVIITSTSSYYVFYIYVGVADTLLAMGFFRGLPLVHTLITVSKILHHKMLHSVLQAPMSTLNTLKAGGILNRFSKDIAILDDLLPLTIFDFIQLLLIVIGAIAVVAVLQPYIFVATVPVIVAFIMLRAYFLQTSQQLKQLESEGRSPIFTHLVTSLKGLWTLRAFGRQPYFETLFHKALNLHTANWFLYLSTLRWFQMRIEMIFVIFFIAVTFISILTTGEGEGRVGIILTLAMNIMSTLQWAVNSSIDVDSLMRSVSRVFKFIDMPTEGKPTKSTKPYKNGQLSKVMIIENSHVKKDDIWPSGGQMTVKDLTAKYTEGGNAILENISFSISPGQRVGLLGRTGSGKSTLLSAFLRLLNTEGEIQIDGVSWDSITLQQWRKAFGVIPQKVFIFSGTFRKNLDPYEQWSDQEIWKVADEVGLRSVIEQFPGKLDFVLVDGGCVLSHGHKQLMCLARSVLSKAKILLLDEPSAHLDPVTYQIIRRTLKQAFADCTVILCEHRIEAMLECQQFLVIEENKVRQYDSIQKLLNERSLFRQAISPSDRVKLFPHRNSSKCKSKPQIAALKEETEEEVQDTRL
T1 sequence (P13569 423-646 limits assumed): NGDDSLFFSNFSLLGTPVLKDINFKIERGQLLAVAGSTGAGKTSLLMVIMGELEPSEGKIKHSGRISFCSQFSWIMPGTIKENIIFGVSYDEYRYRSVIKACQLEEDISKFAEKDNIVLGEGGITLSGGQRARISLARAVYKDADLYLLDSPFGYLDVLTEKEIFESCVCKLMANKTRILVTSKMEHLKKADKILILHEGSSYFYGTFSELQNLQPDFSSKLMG

Row | Compound | DSLS 3D (100 μM ΔT) [1] | TECC (AUC, 10 μM) [2]
1 | CC(CC(=O)O)c1cccc(C2(C)CCCC(C)(C)CS(=O)(=O)CCc3c(c(F)cc4[nH]ccc34)Oc3ccc(F)c(c3)-c3nc2nn3C)c1 (single isomer, unassigned) [Compound 79A, 3-[3-(22,28-difluoro-3,6,10,10-tetramethyl-12,12-dioxo-24-oxa-12lambda6-thia-3,4,19,30-tetrazapentacyclo[23.3.1.12,5.015,23.016,20]triaconta-1(29),2(30),4,15,17,20,22,25,27-nonaen-6-yl)phenyl]butanoic Acid] | C (a value greater than 10 °C and less than or equal to 25 °C is marked “C”) | C (a value between 20 and 80 is marked “C”)
2 | Cn1nc2nc1-c1cc(ccn1)[S+]([O-])c1c(F)c(F)c3[nH]ccc3c1CCS(=O)(=O)CC(C)(C)CCC[C@]2(C)c1cccc(CC(C)(C)C(=O)O)c1 (single isomer, unassigned) [Compound 274] | C (a value greater than 10 °C and less than or equal to 25 °C is marked “C”) | C (a value between 20 and 80 is marked “C”)
3 | COCC(Cc1cccc([C@@]2(C)CCCC(C)(C)CS(=O)(=O)CCc3c(c(F)cc4[nH]ccc34)[S+]([O-])c3ccc(F)c(c3)-c3nc2nn3C)c1)C(=O)O (single isomer, unassigned) [Compound 218A] | B (a value above 5 °C and less than or equal to 10 °C is marked “B”) | A (a TECC value less than 12 is marked “A”)
4 | C[C@H](Cc1ccc(C2(C)CCCC(C)(C)CS(=O)(=O)CCc3c(c(F)cc4[nH]ccc34)Oc3ccnc(c3)-c3nc2nn3C)s1)C(=O)O (single isomer, unassigned) [Compound 246B] | A (an ΔTagg value less than or equal to 5 °C is marked “A”) | B (a value between 12-20 is marked “B”)
5 | C[C@@H](Cc1cccc(C2(C)CCCC(C)(C)CS(=O)(=O)CCc3c(c(F)cc4[nH]ccc34)C(=O)c3ccc(F)c(c3)-c3nc2nn3C)c1)C(=O)O (single isomer, unassigned) [Compound 125A] | B (a value above 5 °C and less than or equal to 10 °C is marked “B”) | B (a value between 12-20 is marked “B”)
6 | CC(Cc1cccc(C2(C)COCC(C)(C)CS(=O)(=O)CCc3c(c(F)cc4[nH]ccc34)Oc3ccc(F)c(c3)-c3nc2nn3C)c1)C(=O)O (single isomer, unassigned) [Compound 113A] | C (a value greater than 10 °C and less than or equal to 25 °C is marked “C”) | A (a TECC value less than 12 is marked “A”)
7 | CC(Cc1cccc(C2(CF)CCCC(C)(C)CS(=O)(=O)CCc3c(c(F)cc4[nH]ccc34)Oc3ccc(F)c(c3)-c3nc2nn3C)c1)C(=O)O (single isomer, unassigned) [Compound 108A, 3-[3-[22,28-difluoro-6-(fluoromethyl)-3,10,10-trimethyl-12,12-dioxo-24-oxa-12λ6-thia-3,4,19,30-tetrazapentacyclo[23.3.1.12,5.015,23.016,20]triaconta-1(29),2(30),4,15,17,20,22,25,27-nonaen-6-yl]phenyl]-2-methyl-propanoic acid] | A (an ΔTagg value less than or equal to 5 °C is marked “A”) | A (a TECC value less than 12 is marked “A”)
8 | C[C@H](Cc1ccc(C2(C)CCCC(C)(C)CS(=O)(=O)CCc3c(c(F)cc4[nH]ccc34)Oc3ccc(F)c(c3)-c3nc2nn3C)s1)C(=O)O (stereo partly drawn) [Compound 198, (2R)-3-[5-(22,28-difluoro-3,6,10,10-tetramethyl-12,12-dioxo-24-oxa-12λ6-thia-3,4,19,30-tetrazapentacyclo[23.3.1.12,5.015,23.016,20]triaconta-1(29),2(30),4,15,17,20,22,25,27-nonaen-6-yl)-2-thienyl]-2-methyl-propanoic Acid] | C (a value greater than 10 °C and less than or equal to 25 °C is marked “C”) | C (a value between 20 and 80 is marked “C”)
9 | C[C@@H](Cc1cccc([C@@]2(C)CCCC(C)(C)CS(=O)(=O)CCc3c(c(F)cc4[nH]ccc34)Oc3ccc(F)c(c3)-c3coc2n3)c1)C(=O)O [Compound 192, (2S)-3-[3-[(6R)-22,28-difluoro-6,10,10-trimethyl-12,12-dioxo-4,24-dioxa-12λ6-thia-19,30-diazapentacyclo[23.3.1.12,5.015,23.016,20]triaconta-1(29),2,5(30),15,17,20,22,25,27-nonaen-6-yl]phenyl]-2-methyl-propanoic Acid] | C (a value greater than 10 °C and less than or equal to 25 °C is marked “C”) | C (a value between 20 and 80 is marked “C”)
10 | CC(Cc1cccc(C2(C#N)CCCC(C)(C)CS(=O)(=O)CCc3c(c(F)cc4[nH]ccc34)Oc3ccc(F)c(c3)-c3nc2nn3C)c1)C(=O)O (single isomer, unassigned) [Compound 20A, 3-[3-[6-cyano-22,28-difluoro-3,10,10-trimethyl-12,12-dioxo-24-oxa-12lambda6-thia-3,4,19,30-tetrazapentacyclo[23.3.1.12,5.015,23.016,20]triaconta-1(29),2(30),4,15,17,20,22,25,27-nonaen-6-yl]phenyl]-2-methyl-propanoic Acid] | C (a value greater than 10 °C and less than or equal to 25 °C is marked “C”) | C (a value between 20 and 80 is marked “C”)
11 | Cn1nc2nc1-c1cc(ccn1)Oc1c(F)cc3[nH]ccc3c1CCS(=O)(=O)CC(C)(C)CCC[C@]2(C)c1cccc(CCO)c1 [Compound 227, 2-[3-[(6R)-22-Fluoro-3,6,10,10-tetramethyl-12,12-dioxo-24-oxa-12λ6-thia-3,4,19,28,30-pentazapentacyclo[23.3.1.12,5.015,23.016,20]triaconta-1(29),2(30),4,15,17,20,22,25,27-nonaen-6-yl]phenyl]ethanol] | C (a value greater than 10 °C and less than or equal to 25 °C is marked “C”) | B (a value between 12-20 is marked “B”)
12 | CC(Cc1cccc(C2(C)CCC(=O)C(C)(C)CS(=O)(=O)CCc3c(c(F)cc4[nH]ccc34)Oc3ccc(F)c(c3)-c3nc2nn3C)c1)C(=O)O (single isomer, unassigned) [Compound 11A, 3-[3-[22,28-difluoro-3,6,10,10-tetramethyl-9,12,12-trioxo-24-oxa-12lambda6-thia-3,4,19,30-tetrazapentacyclo[23.3.1.12,5.015,23.016,20]triaconta-1(29),2(30),4,15,17,20,22,25,27-nonaen-6-yl]phenyl]-2-methyl-propanoic Acid] | C (a value greater than 10 °C and less than or equal to 25 °C is marked “C”) | C (a value between 20 and 80 is marked “C”)
13 | C[C@@H](Cc1cccc(C2(C)CCCC(C)(C)CS(=O)(=O)CCc3c(c(F)cc4[nH]ccc34)Oc3ccc(F)c(c3)-c3nc2nn3C)c1)C(=O)NS(C)(=O)=O (single isomer, unassigned) [Compound 146] | C (a value greater than 10 °C and less than or equal to 25 °C is marked “C”) | A (a TECC value less than 12 is marked “A”)
